{"source": "patent US10815283B2", "about": "“Peptides for treatment of diabetes” (Follicum AB, priority 2017, dated 2020)", "key": {"INS-1 cells [1]": {"system": "INS-1 cells", "test": "Proliferation of INS-1 cells, [methyl-3H] thymidine incorporation", "type": "cell-based, rat", "method": "To investigate if FOL-005 and FOL-014 could induce proliferation of β-cells we used INS-1 cells. Rat INS-1 cells were seeded in 96-well plates in RPMI medium with supplement and after 2 hours the medium was changed to RPMI without supplement. During the proliferation experiment the cells were incubated at different test conditions (FOL-005, FOL-014, coated or in solution, 48 h incubation) and during the last 20 hours of culture period the cells were pulsed with 1μ Ci/well of [methyl-3H] thymidine. The cells were then harvested onto glass fiber filters using a FilterMate harvester. The filters were air dried, and the bound radioactivity was measured using a liquid scintillation counter. To study whether FOL-005 influenced β-cell proliferation, INS-1 cells were treated with increasing amounts of soluble FOL-005 (0.06-6 μM) during 48 hours and proliferation was measured with radiolabeled thymidine incorporation into newly synthesized DNA."}, "INS-1 cells [2]": {"system": "INS-1 cells", "test": "Glucotoxicity-induced apoptosis in INS-1 cells (Annexin V staining, caspase-3 activity)", "type": "cell-based, rat", "conditions": "20 mM glucose, 48 h, vs 20 mM glucose alone", "method": "Since glucotoxicity in pancreatic β-cells is a well-established process in type 2 diabetes we next investigated the protective effects of FOL-005 on β-cells during glucotoxic conditions. First we confirmed that 20 mM glucose induced cell apoptosis in INS cells after 48 h of exposure. High glucose (20 mM) containing RPMI medium induced more Annexin V positive cells and more caspase-3 activity in INS cells compared to cells incubated with medium containing 5 mM glucose (FIG. 2A-B). […] The rate of apoptosis in INS-1 cells was measured with either Caspase-3 Assay Kit or stained with Annexin V Apoptosis Detection Kit with 7-AAD. Caspase-3 activity was measured with fluorescence at an excitation wavelength of 380 nm and an emission wavelength of 440 nm. Caspase-3 activity was then normalized to protein concentration in each well. Measurements of Annexin V stained cells were performed using a CyAn ADP flow cytometer and analyzed with Summit V4.3 software."}, "INS-1 β-cells": {"system": "INS-1 β-cells", "test": "Insulin secretion from INS-1 cells, insulin radioimmunoassay (Examples 4 and 6)", "type": "cell-based, rat", "conditions": "peptide 6 μM, 60 min", "method": "To investigate the stimulatory effect of FOL-005 on insulin secretion, INS-1 β-cells were used in the following experiments. Cells were seeded overnight in cRPMI and then washed with PBS before pre-incubation for 60 min at 37° C. in Krebs-Ringer bicarbonate buffer (KRB), pH 7.4, supplemented with 10 mM HEPES, 0.1% bovine serum albumin. After pre-incubation, the buffer was changed and the INS-1 cells were incubated at different test conditions (0 mM, 5 mM or 20 mM glucose) and stimulated with peptide FOL-005 or FOL-015 (SEQ ID NO: 158) or left untreated during 60 min at 37° C. Immediately after incubation, an aliquot of the buffer was removed and frozen for subsequent assay of insulin with an insulin radioimmunoassay kit.\nINS-1 β-cells were used to investigate the stimulatory effect of FOL-014 on insulin secretion. Cells were seeded overnight and then washed with PBS before pre-incubation for 60 min at 37° C. in Krebs-Ringer bicarbonate buffer (KRB), pH 7.4, supplemented with 10 mM HEPES, 0.1% bovine serum albumin. After pre-incubation, the buffer was changed and the INS-1 cells were incubated in new KRB buffer supplemented with 10 mM HEPES, 0.1% bovine serum albumin and stimulated with peptide FOL-014 or left untreated during 60 min at 37° C. Immediately after incubation, an aliquot of the buffer was removed and frozen for subsequent assay of insulin."}, "mouse pancreatic islets": {"system": "mouse pancreatic islets", "test": "Insulin secretion from isolated mouse pancreatic islets (Examples 5 and 7)", "type": "cell-based", "conditions": "60 min", "method": "Mouse pancreatic islets were isolated from 8-week old C57BL/6J male mice (Taconic). Mice were sacrificed by an overdose of isoflurane and cervical dislocation. 3 ml of 0.9 U/ml collagenase P was injected into the pancreatic duct to inflate the pancreas. The pancreas was then removed and collagen digested for 19 min at 37° C. The samples were vigorously shaken to disrupt the tissue. The digest was transferred into ice cold Hank's Balanced Salt Solution (HBSS) with Ca^2+ and Mg^2+. The suspension was allowed to sit for 10 min to allow the islet to sink, and the islets were washed in fresh HBSS four times. The islets were then hand-picked and sorted according to size. Islets (n=3 per well in a 96 well plate) were pre-incubated in KRB buffer during 10 min 37° C., pH 7.4, supplemented with 10 mM HEPES, 0.1% bovine serum albumin. After pre-incubation, the buffer was changed and islets were incubated at different test conditions in new KRB buffer with 0.1% bovine serum albumin (non-treated ctrl, FOL-005 peptide, or GLP-1) for 60 min at 37° C. Immediately after incubation, an aliquot of the buffer was removed and frozen for subsequent assay of insulin.\nMouse pancreatic islets were isolated from 8-week old C57BL/6J male mice as described under example 5. The islets were then hand-picked and sorted according to size. Islets (n=5 per well in a 96 well plate) were pre-incubated in 200 μl KRB buffer during 10 min 37° C., pH 7.4, supplemented with 10 mM HEPES, 0.1% bovine serum albumin. Following pre-incubation, the buffer was changed and islets were incubated in different test conditions in new KRB buffer with 0.1% bovine serum albumin (non-treated ctrl, FOL-014 peptide, and GLP-1) for 60 min at 37° C. Immediately after incubation, an aliquot of the buffer was removed and frozen for subsequent assay of insulin."}, "[3]": {"test": "Distribution of H3 labelled peptide, whole body sectioning", "type": "in vivo, mouse", "conditions": "subcutaneous, C57Bl/6 mice, 1 h and 2 h after injection", "method": "C57Bl/6 mice were injected subcutaneously with H^3 labelled FOL-005 and euthanized at 1 h (FIG. 12A) or 2 h (FIG. 12B) after injection. Following whole body sectioning the distribution of the labelled peptide was visualised. […] Using Pearl Trilogy Small Animal Imaging System, in vivo bio-distribution and tissue localization of two Cy7.5 labelled peptides, FOL-005 (FIG. 12C) and FOL-014 (FIG. 12D) in NMRI nude mice via subcutaneous injection was investigated. […] The dose of each peptide was 10 nmol per mouse. The mice were imaged before injection, at 5 min, 20 min, 50 min, 60 min, 2 hrs, 4 hrs, 6 hrs, 24 hrs and 48 hrs post administration of labelled peptide."}, "[4]": {"test": "In vivo bio-distribution of Cy7.5 labelled peptides, Pearl Trilogy Small Animal Imaging System", "design": "species or system mouse", "conditions": "Cy7.5 labelled peptide"}, "isolated mouse islets": {"system": "isolated mouse islets", "test": "Insulin and glucagon secretion from isolated mouse islets at low and high glucose (Example 12)", "type": "cell-based", "conditions": "100 nM GLP-1, 1 h", "method": "Twelve-week-old male C57/bl6 mice were euthanized with isoflurane and cervical dislocation. After clamping the hepatic ducts, 3 ml of 0.9 U/ml collagenase P was injected into the bile duct to inflate the pancreas. The pancreas was then removed and digested for 19 min at 37° C. The samples were vigorously shaken to disrupt the tissue. The digest was quickly transferred into ice cold Hank's Balanced Salts Solution with Ca^2+ and Mg^2+. The suspension was allowed to sit for 8 min to allow the islet to sink, and the islets were washed in the same manner four times. The islets were then handpicked and sorted according to size.\nFreshly isolated islets were seeded in groups of 5 in a 96-well plate and preincubated for 1 h at 37° C. in a Krebs-Ringer bicarbonate buffer (pH 7.4). The islets were incubated for 1 h at 37° C. in Krebs-Ringer buffered solution supplemented with 0.6 or 6 μM FOL-014 or 100 nM GLP-1 or left unsupplemented for control. Immediately after incubation, the medium was removed for assays of insulin and glucagon using Mercodia's ELISA kits. The effect of FOL-014 on insulin (FIGS. 8A and B) and glucagon (FIGS. 8C and D) secretion from isolated mouse islets was measured in the presence of low glucose (2.8 mM; FIGS. 8A and C) or high glucose (16.7 mM; FIGS. 8B and D) concentrations."}}, "note": "“Also recorded” adds a separate entry of the source. No end group written: not given here.", "data": [{"substance": "VDTYDGDISVVYGLR ((1)..(15) peptide, FOL-005)", "values": [{"measurement": "INS-1 cell proliferation (radiolabeled thymidine incorporation)", "setting": "INS-1 cells [1]; soluble peptide 0.06-6 μM, 48 hours", "result": "stimulated INS-1 cell proliferation"}, {"measurement": "INS-1 cell proliferation (radiolabeled thymidine incorporation)", "setting": "INS-1 cells [1]; wells coated with peptide and blocked with BSA, vs control coated wells", "result": "stimulated proliferation compared to control (ctrl) coated wells"}, {"measurement": "cell apoptosis, Annexin V staining", "setting": "INS-1 cells [2]", "result": "decreased cell apoptosis"}, {"measurement": "cell apoptosis, caspase-3 activity", "setting": "INS-1 cells [2]", "result": "decreased cell apoptosis"}, {"measurement": "insulin secretion", "setting": "INS-1 β-cells; 5 mM glucose", "result": "responded with insulin secretion"}, {"measurement": "insulin secretion", "setting": "INS-1 β-cells; 20 mM glucose", "result": "responded with more insulin secretion compared to FOL-005 stimulated cells incubated with 5 mM glucose"}, {"measurement": "insulin secretion", "setting": "INS-1 β-cells; conditions without glucose", "result": "secreted more insulin compared to unstimulated control cells"}, {"measurement": "insulin secretion", "setting": "mouse pancreatic islets; Example 5, 3 islets per well, peptide 6 μM", "result": "secreted more insulin compared to unstimulated control islets"}, {"measurement": "tissue distribution of radioactivity", "setting": "[3]", "result": "Strong binding was evident in pancreas and at the site of injection; also recorded: also visible in liver, kidney, salivary glands"}, {"measurement": "bio-distribution and tissue localization", "setting": "[4]; i.v. administration (not shown)", "result": "same distribution pattern"}, {"measurement": "bio-distribution and tissue localization", "setting": "[4]; subcutaneous, 10 nmol per mouse, NMRI nude mice, 5 min to 48 hrs", "result": "High accumulation of the peptide was evident in the pancreatic tissue area"}]}, {"substance": "glucagon-like peptide-1 (HAEGTFTSDVSSYLEGQAAKEFIAWLVKGR; ends and bridges not checked; UniProt P01275 98-127, looked up) [GLP-1, metabolic hormone that stimulates insulin secretion; native GLP-1 used as comparator]", "values": [{"measurement": "insulin secretion", "setting": "mouse pancreatic islets; Example 5, 3 islets per well, GLP-1 100 nM", "result": "secreted more insulin compared to unstimulated control islets"}, {"measurement": "insulin secretion", "setting": "mouse pancreatic islets; Example 7, 5 islets per well, GLP-1 100 nM", "result": "did not affect insulin secretion"}, {"measurement": "glucagon secretion", "setting": "isolated mouse islets; high glucose (16.7 mM)", "result": "efficiently reduced glucagon secretion"}, {"measurement": "insulin secretion", "setting": "isolated mouse islets; high glucose (16.7 mM)", "result": "significantly increased insulin secretion"}, {"measurement": "glucagon secretion", "setting": "isolated mouse islets; low glucose (2.8 mM)", "result": "failed to inhibit glucagon secretion in low glucose conditions"}, {"measurement": "insulin secretion", "setting": "isolated mouse islets; low glucose (2.8 mM)", "result": "enhanced insulin secretion also in low glucose samples"}]}]}
